The source of these data is US20240325394A1, “SALT AND CRYSTAL FORM OF NITROGEN-CONTAINING HETEROCYCLIC DERIVATIVE, PREPARATION METHOD THEREFOR AND APPLICATION THEREOF” (SHANGHAI HANSOH BIOMEDICAL CO., LTD., priority 2020, published 2024).

One data set deals with T1, human KRAS G12C protein (Homo sapiens, UniProt P01116, G12C).
T1 construct: purchased Beijing SinoBiological Co., Ltd. 12259-H07E2
As to the kind of experiment: Thermal shift: melting temperature of KRAS G12C protein. It is filed as binding. Particulars: KRAS G12C protein 5.37 μM with compound 10 μM, 1 hour. On the procedure: In this experiment, the thermal shift method was used to test the degree of change in the melting temperature (Tm) of the KRAS G12C protein before and after the binding of the compound, in order to characterize the ability of the compound to improve the stability of the KRAS G12C protein.
The specific experiment operation was as follows: • A solution containing […] (pH 7.5), 1 mM DTT, 5× SYPRO Orange and 150 mM NaCl was prepared as the experimental buffer, and a final concentration of 5.37 μM human KRAS G12C protein was added thereto. The reaction mixture was divided into 8 rows of PCR tubes, each 19.5 μL, and 0.5 μL of the test compound or DMSO were added respectively, so that the total reaction system was 20 μL, the final concentration of the compound was 10 μM, and 2.5% DMSO was set as the solvent control. After incubating at room temperature in the dark for 1 hour, the PCR tube was put into the PCR instrument, QuantStudio Software v1.3 was opened, and the melting temperature of KRAS G12C protein in different treatment groups was detected by melt curve function (heating from 25° C. to 95° C., 0.03° C./s).
The experimental data file of PCR instrument was imported into thermal shift software, and the melting temperature (Tm) of each treatment group was obtained, and the change value of melting temperature (ATm) was obtained by subtracting the Tm of DMSO solvent control group.

Data set [1] in a line: Plasma stability, dog plasma. In kind it is in vitro ADME. Particulars: dog plasma, 37° C. On the procedure:
(§1) Animal or human whole blood was collected, then the blood was put into a test tube containing anticoagulant, centrifuged at 3500 rpm for 10 min, and the upper layer of pale yellow plasma was collected. • 2) 10 μM of tested compound (m/M/V=C)
(§2) The compound was weighed, the stock solution was prepared with DMSO and the working solution was prepared with 100 mM phosphate buffer. • 3) 10 μM of positive control • (1) Propantheline (Propantheline Mr=449.4 Da)
(§3) • 1) 285 μL of plasma and 15 μL of 10 μM compound (tested compound) were added in turn in a 96-well plate, and incubated at 37° C. • 2) 40 μL was taken out at 0, 15, 30, 60, 90, 120 min, respectively, and 160 μL of acetonitrile termination solution containing internal standard was added. • 3) After centrifugation (3500 rpm, 10 min), 50 μL of supernatant was taken out, and then diluted with 50 μL DDH2O and injected to LC-MS/MS.
(§4) • instrument: Shimadzu LC-20 AD • chromatographic column: phenomenex Gemiu® C18 (50*4.6 mm, 5 μM particle size); • mobile phase: A: acetonitrile, B: 0.1% formic acid solution 0-8 min: 5% A→95% A, 2.0-2.1 min: 90% A→5% A; flow rate: 0.8 mL/min; running time: 5.0 min; injection volume: 5 μL.
(§5) • instrument: API4000 Liquid Chromatography-Mass Spectrometry, AB, USA; • the ion source was electrospray ionization source (ESI); • the temperature of dry gas (N2) was 500° C.; • electrospray voltage was 5500V; • the detection method was positive ion detection; • the scanning mode was selective response monitoring (MRM); • the scanning time was 0.1 s.

Data set [2] can be described thus: Plasma stability, rat plasma. It is filed as in vitro ADME. Particulars: rat plasma, 37° C. On the procedure: as §1, §2, §3, §4, §5
The nature of data set [3]: Plasma stability, human plasma. Particulars: human. It is filed as in vitro ADME. As for the experimental part:
as §1, §2, §3, §4, §5

Data set [4] can be described thus: Plasma stability, mouse plasma. It is filed as in vitro ADME. Particulars: mouse. On the procedure: as §1, §2, §3, §4, §5
The nature of data set [5]: Thermodynamic solubility in different media (FaSSGF, FaSSIF, FeSSIF, water) at 37° C. In kind it is physicochemical. Particulars: 24 hours.
Data set [6] in a line: Solid stability (10 days), impurity increase by HPLC. It is filed as physicochemical.
The nature of data set [7]: Solid stability of crystal form, XRPD after stress conditions. In kind it is physicochemical.

Structures can show the parent of a compound that is named as a salt.

Take `C=CC(=O)N1CCN(c2nc(=O)n(-c3c(SC)ccnc3C(C)C)c3nc(-c4c(N)ccc(Cl)c4F)c(Cl)cc23)[C@@H](C)C1` [Embodiment 9, 4-((S)-4-acryloyl-2-methylpiperazin-1-yl)-7-(6-amino-3-chloro-2-fluorophenyl)-6-chloro-1-(2-isopropyl-4-(methylthio)pyridin-3-yl)pyrido[2,3-d]pyrimidin-2(1H)-one]: the Tm (commonly the temperature at the midpoint of the melting transition) at human KRAS G12C protein was determined as 60.2 °C.

As for `C=CC(=O)N1C[C@H](C)N(c2nc(=O)n(-c3c(SC)ccnc3C(C)C)c3nc(-c4c(N)ccc(Cl)c4F)c(Cl)cc23)C[C@H]1C` [Embodiment 13, 4-((2S,5R)-4-acryloyl-2,5-dimethylpiperazin-1-yl)-7-(6-amino-3-chloro-2-fluorophenyl)-6-chloro-1-(2-isopropyl-4-(methylthio)pyridin-3-yl)pyrido[2,3-d]pyrimidin-2(1H)-one], the Tm at human KRAS G12C protein came to 58.0 °C.

With `C=CC(=O)N1C[C@H](C)N(c2nc(=O)n(-c3c(SC)ccnc3C(C)C)c3nc(-c4c(O)cccc4F)c(F)cc23)C[C@H]1C` [Embodiment 2, 4-((2S,5R)-4-acryloyl-2,5-dimethylpiperazin-1-yl)-6-fluoro-7-(2-fluoro-6-hydroxyphenyl)-1-(2-isopropyl-4-(methylthio)pyridin-3-yl)pyrido[2,3-d]pyrimidin-2(1H)-one], the Tm on human KRAS G12C protein came out at 57.2 °C.

Take `CC[C@H](C)C(=O)O[C@H]1C[C@@H](C)C=C2C=C[C@H](C)[C@H](CC[C@@H]3C[C@@H](O)CC(=O)O3)[C@H]21` [Lovastatin, reference compound]: the “t1/2” value in data set [1] was determined as 80.22 min; in data set [2] it was 6.69 min. The “Residual rate (%) 0 min” value in data set [1] (0 min) and in data set [2] (0 min) was 100.00% in each case. The “Residual rate (%) 15 min” value in data set [1] (15 min) came out at 95.25%; in data set [2] (15 min), 21.15%. Besides, the “Residual rate (%) 30 min” value is 95.45% in data set [1] (30 min) and 1.77% in data set [2] (30 min). In addition, the “Residual rate (%) 60 min” value in data set [1] (60 min) was 75.66%; in data set [2] (60 min), 0.36%. In addition, the “Residual rate (%) 120 min” value in data set [1] (120 min) came out at 36.25%; in data set [2] (120 min), 0.30%.

As to `CC(C)[N+](C)(CCOC(=O)C1c2ccccc2Oc2ccccc21)C(C)C` [Propantheline, reference compound], the “Residual rate (%) 0 min” value was 100.00% in data set [3] (0 min, 0.5 μM) and 100.00% in data set [4] (0 min, 0.5 μM). Moreover, the “Residual rate (%) 15 min” value was 79.98% in data set [3] (15 min, 0.5 μM) and 79.79% in data set [4] (15 min, 0.5 μM). The “Residual rate (%) 30 min” value is reported as 50.52% in data set [3] (30 min, 0.5 μM) and 48.66% in data set [4] (30 min, 0.5 μM). In addition, the “Residual rate (%) 60 min” value came to 14.65% in data set [3] (60 min, 0.5 μM) and 23.39% in data set [4] (60 min, 0.5 μM). The “Residual rate (%) 120 min” value in data set [3] (120 min, 0.5 μM) came to 0.72%; in data set [4] (120 min, 0.5 μM), 6.66%. Also, the results for the half-life at 0.5 μM in data set [3] (plasma) and in data set [4] (plasma) were 21 min and 27.7 min, respectively.

With `C=CC(=O)N1CCN(c2nc(=O)n(-c3c(SC)ccnc3C(C)C)c3nc(-c4c(O)cccc4F)c(F)cc23)[C@@H](C)C1` [Embodiment 1, 4-((S)-4-Acryloyl-2-methylpiperazin-1-yl)-6-fluoro-7-(2-fluoro-6-hydroxyphenyl)-1-(2-isopropyl-4-(methylthio)pyridin-3-yl)pyrido[2,3-d]pyrimidin-2(1H)-one], the Tm on human KRAS G12C protein was found to be 60.2 °C.

Take `C=CC(=O)N1C[C@H](C)N(c2nc(=O)n(-c3c(SC)ccnc3C(C)C)c3nc(-c4c(N)ccc(Cl)c4F)c(Cl)cc23)C[C@H]1C` [crystal form II of sulfate, P-4-((2S,5R)-4-acryloyl-2,5-dimethylpiperazin-1-yl)-7-(6-amino-3-chloro-2-fluorophenyl)-6-chloro-1-(2-isopropyl-4-(methylthio)pyridin-3-yl)pyrido[2,3-d]pyrimidin-2(1H)-one]: the Solubility (in general, the dissolved amount per volume that the medium holds) in data set [5] (FaSSGF) amounted to 386.5 µg/mL; in data set [5] (FaSSIF), 150.3 µg/mL; in data set [5] (FeSSIF), 383.5 µg/mL; in data set [5] (H2O), 13.2 µg/mL. Moreover, the “Stability of solid (10 days) (impurity increase %)” value worked out at 0.15% in data set [6] (50° C. & 75% RH, HPLC peak area normalization); 0.91% in data set [6] (60° C., HPLC peak area normalization); 0.56% in data set [6] (92.5% RH, HPLC peak area normalization); 1.12% in data set [6] (Light (5000±500 lux), HPLC peak area normalization). For the same compound, in data set [6] (light, high humidity, high temperature and high humidity conditions), the “Solid stability (in words)” value is on record as “relatively stable”.

Turning to `C=CC(=O)N1CCN(c2nc(=O)n(-c3c(SC)ccnc3C(C)C)c3nc(-c4c(N)cccc4F)c(F)cc23)[C@@H](C)C1` [Embodiment 5, 4-((S)-4-acryloyl-2-methylpiperazin-1-yl)-7-(2-amino-6-fluorophenyl)-6-fluoro-1-(2-isopropyl-4-(methylthio)pyridin-3-yl)pyrido[2,3-d]pyrimidin-2(1H)-one], the Tm on human KRAS G12C protein was 64.4 °C.

As to `C=CC(=O)N1C[C@H](C)N(c2nc(=O)n(-c3c(SC)ccnc3C(C)C)c3nc(-c4c(N)ccc(Cl)c4F)c(Cl)cc23)C[C@H]1C` [Crystal form I of hydroxyethyl sulfonate, P-4-((2S,5R)-4-acryloyl-2,5-dimethylpiperazin-1-yl)-7-(6-amino-3-chloro-2-fluorophenyl)-6-chloro-1-(2-isopropyl-4-(methylthio)pyridin-3-yl)pyrido[2,3-d]pyrimidin-2(1H)-one], the Solubility came to 314.6 µg/mL in data set [5] (FaSSGF), 158.8 µg/mL in data set [5] (FaSSIF), 347.3 µg/mL in data set [5] (FeSSIF) and 7.4 µg/mL in data set [5] (H2O). The “Crystal form of hydroxyethyl sulfonate (XRPD)” value in data set [7] (High humidity (25° C., 75%, 10 days)) is “Crystal form I”; in data set [7] (High humidity (25° C., 90%, 10 days)) it was “Crystal form I”; in data set [7] (High temperature (40° C., 30 days)), “Crystal form I”; in data set [7] (High temperature (60° C., 30 days)) it was “Crystal form I”; in data set [7] (Initial crystal form), “Crystal form I”; in data set [7] (Light (≥1.2 × 10^6 lux-h, 10 days)) it was “Crystal form I”. Moreover, in data set [7] (Micropowder), the “Crystal form of hydroxyethyl sulfonate (XRPD)” value was “Crystal form I”. The “Solid stability (in words)” value in data set [7] (light, high humidity, high temperature, and micropowder conditions) is on record as “relatively stable”. The “Stability of solid (10 days) (impurity increase %)” value in data set [6] (50° C. & 75% RH) came to 0.30%; in data set [6] (60° C.), 0.26%; in data set [6] (92.5% RH), 0.01%; in data set [6] (Light (5000±500 lux)) it was 0.27%.
